Results reported in article PMC4823711, “Allosteric Partial Inhibition of Monomeric Proteases. Sulfated Coumarins Induce Regulation, not just Inhibition, of Thrombin” (Scientific Reports, 2016).
Several values for one entry are separate records, joined by “and”; a condition that tells them apart may be missing. Equal entries are not always repeated.

Columns and labels:
[1] = molecular target: thrombin (Homo sapiens, UniProt P00734); assay: Chromogenic substrate hydrolysis assay, thrombin inhibition (Spectrozyme TH); assay type: biochemical; set-up: 6 nM plasma α-thrombin; purchased Haematologic Technologies (Essex Junction, VT); conditions: pH 7.4, 25 °C
Experimental: (§1) Chromogenic substrate hydrolysis assay was used to measure potency of inhibition, as previously reported. The assay was performed using Flexstation III (Molecular Devices, Sunnyvale, CA) by monitoring substrate hydrolysis at 405 nm. For thrombin and its mutants, 180 μL of buffer (20 mM Tris-HCl, 100 mM NaCl, 2.5 mM CaCl2, 0.1% (polyethylene glycol) PEG 8000, pH 7.4) was added to each well followed by 5 μL of 240 nM thrombin and 10 μL of sulfated coumarin in DMSO to give 0.002 to 250 μM final concentration (or 10 μL of DMSO alone). After incubation for 10 min at 25 °C, 5 μL of 2 mM Spectrozyme TH was added to each well simultaneously and allowed to react for 60 seconds at 25 °C while simultaneously monitoring the reaction to obtain the rate of increase in A405. Identical experimental conditions were used for reactions in the presence of antithrombin, except for 100 nM of antithrombin added prior to the addition of the substrate.
(§2) For factor XIa inhibition studies, 85 μL of buffer (50 mM Tris-HCl, 150 mM NaCl, 0.1% PEG 8000, 0.02% Tween 80, pH 7.4) was added to each well, followed by 7 μL of 15.3 nM enzyme and 3 μL of sulfated coumarin (3.75–500 μM final concentration) and incubated for 10 min at 37 °C. After the incubation period, 5 μL of 6.9 mM S-2366 was added to each well simultaneously and allowed to react for 300 sec at 37 °C. For factor Xa assay, 180 μL of buffer (20 mM Tris-HCl, 100 mM NaCl, 2.5 mM CaCl2, 0.1% PEG 8000, 0.02% Tween 80, pH 7.4) was added to each well followed by 5 μL of 43.5 nM enzyme, 10 μL of sulfated coumarin (0.002–250 μM final concentration). After a 10 min incubation, 5 μL of 5 mM Spectrozyme FXa was added to each well simultaneously and allowed to react for 300 seconds at 37 °C. The slopes generated from each experiment were used to calculate the fractional residual activity (Y) at each concentration of the inhibitor, and analyzed using logistic equation 1, in which YM is the maximum efficacy, Y0 is minimum efficacy and HS is the Hill slope.

[2] = molecular target: T1, thrombin mutant R165A (Homo sapiens, UniProt P00734, R533A); assay: Inhibition of thrombin mutant R165A; assay type: biochemical; conditions: pH 7.4, 25 °C
T1 construct: a group of thrombin mutants containing replacement of either Arg or Lys present in exosite 2 to Ala
Experimental: as §1

[3] = molecular target: T2, fluorescein-labeled (f FPRCK-) thrombin (Homo sapiens, UniProt P00734); assay: Thermodynamic affinity by fluorescence titration; assay type: binding
T2 construct: fluorescein-labeled (f FPRCK-) human thrombin; purchased Haematologic Technologies (Essex Junction, VT); host or cells: human plasma
Experimental: Affinity studies were performed in triplicate and conducted using quartz cuvettes. 180 μL of buffer (20 mM Tris-HCl, 100 mM NaCl, 2.5 mM CaCl2, 0.1% PEG 8000, pH 7.4) and 20 μL of 2 μM fluorescein-labeled (f FPRCK-) thrombin were added to the cuvette followed by titration with 1 μL additions of 3g. Fluorescence intensities were monitored by excitation at 490 nm and emission at 525 nm using slit widths of 0.5 mm. The KD of 3g–thrombin complex was calculated using the quadratic binding equation (equation 4) in which ∆F is the change in fluorescence from the formation of the thrombin-ligand complex with each addition of 3g. F0 is the initial fluorescence and ∆FMAX represents the maximum observed change in fluorescence due to thrombin saturation ([Th]0).

[4] = molecular target: T2, fluorescein-labeled (f FPRCK-) thrombin; assay: Iodide fluorescence quenching of f FPRCK-thrombin (Stern-Volmer)
Experimental: The quenching studies performed were done using quartz cuvettes, as described previously. 180 μL of buffer (20 mM Tris-HCl, 100 mM NaCl, 2.5 mM CaCl2, 0.1% PEG 8000, pH 7.4) and 20 μL of 2 μM fluorescein-labeled (f FPRCK-) human thrombin were added to the cuvette; fluorescent intensity readings were taken at the λEX of 490 nm and λEM of […] at 25 °C. A solution of 10 M NaI was made using buffer as the solvent. For the readings where inhibitor was absent, 1 μL increments of 10 M NaI was added directly to the cuvette after initial readings of the buffer-thrombin solution. NaI was added six times, while recording changes in fluorescent intensity each time, giving a concentration range of […] in the cuvette. For the readings where inhibitor was present, after the initial buffer-thrombin read, 1 μL of 80 μM inhibitor solution was added to the cuvette and mixed. An intensity reading was taken and then the addition of 1 μL increments of 10 M NaI was again performed six times, taking reads between each addition. The experiments were performed in triplicate and averaged. Initial fluorescence (F0) was the intensity reading from either the buffer-thrombin solution in the absence of 3g or following addition of 1 μL of 3g. […]

[5] = molecular target: T3, thrombin mutant K235A (Homo sapiens, UniProt P00734, K610A); assay: Inhibition of thrombin mutant K235A; assay type: biochemical; conditions: pH 7.4, 25 °C
T3 construct: a group of thrombin mutants containing replacement of either Arg or Lys present in exosite 2 to Ala
Experimental: as §1

[6] = molecular target: T4, factor XIa (Homo sapiens, UniProt P03951); assay: Chromogenic substrate hydrolysis assay, factor XIa inhibition (S-2366); assay type: biochemical
T4 construct: antithrombin, factor Xa and factor XIa were from Haematologic Technologies; purchased Haematologic Technologies (Essex Junction, VT); host or cells: human plasma
T4 sequence (P03951 388-625 limits assumed): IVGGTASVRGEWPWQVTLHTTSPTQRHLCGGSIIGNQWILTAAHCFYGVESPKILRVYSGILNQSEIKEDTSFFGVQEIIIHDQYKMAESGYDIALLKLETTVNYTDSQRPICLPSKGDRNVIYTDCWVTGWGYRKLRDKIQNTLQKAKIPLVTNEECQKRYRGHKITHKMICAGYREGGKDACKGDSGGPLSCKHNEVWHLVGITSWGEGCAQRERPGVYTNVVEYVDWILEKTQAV
T4 sequence (P03951 19-387 limits assumed): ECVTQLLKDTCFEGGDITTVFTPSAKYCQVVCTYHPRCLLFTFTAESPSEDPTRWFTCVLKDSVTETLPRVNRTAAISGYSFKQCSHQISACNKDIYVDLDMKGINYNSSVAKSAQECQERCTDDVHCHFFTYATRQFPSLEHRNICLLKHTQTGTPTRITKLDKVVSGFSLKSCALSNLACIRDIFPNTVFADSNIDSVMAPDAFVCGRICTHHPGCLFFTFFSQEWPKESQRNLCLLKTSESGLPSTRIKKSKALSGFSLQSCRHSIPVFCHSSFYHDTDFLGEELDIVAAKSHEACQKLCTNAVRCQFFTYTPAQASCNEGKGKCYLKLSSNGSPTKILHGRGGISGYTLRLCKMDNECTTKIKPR
Experimental: as §2

[7] = molecular target: T5, thrombin mutant R175A (Homo sapiens, UniProt P00734, R543A); assay: Inhibition of thrombin mutant R175A; assay type: biochemical; conditions: pH 7.4, 25 °C
T5 construct: a group of thrombin mutants containing replacement of either Arg or Lys present in exosite 2 to Ala
Experimental: as §1

[8] = system: recombinant human thrombins; assay: Inhibition of recombinant thrombins (wild type and exosite 2 mutants, summary statements); assay type: biochemical
Experimental: as §1

[9] = molecular target: T6, thrombin mutant R97A (Homo sapiens, UniProt P00734, R456A); assay: Inhibition of thrombin mutant R97A; assay type: biochemical; conditions: pH 7.4, 25 °C
T6 construct: a group of thrombin mutants containing replacement of either Arg or Lys present in exosite 2 to Ala
Experimental: as §1

SMILES: O=c1oc2cc(OCCCCn3cc(COc4ccc(-c5c(-c6ccccc6)c6cc(Cl)cc(Cl)c6oc5=O)cc4)nn3)ccc2c(-c2ccccc2)c1-c1ccc(OS(=O)(=O)O)cc1 [3g]
- Hill slope (HS) of thrombin inhibition [1]: 1.2
- efficacy of thrombin inhibition (ΔY) ([1]; at saturation): 47% and 50%
- IC50 ([1]; read-out: IC50 against thrombin): 180 nM
- HS [2]: 4.2
- IC50 [2]: 301 ± 20 nM
- ΔY [2]: 28 ± 2%
- ΔFMAX ([3]; loss in fluorescence at saturation): ~ 28%
- Kd ([3]; pH 7.4, λEX 490 nm, λEM 525 nm, quadratic binding equation): 143 ± 14 nM
- slope of iodide quenching (Stern-Volmer, KSV) ([4]; 90% saturation of thrombin, pH 7.4, 25 °C, thrombin alone 2.37 ± 0.14): 1.19 ± 0.06 M⁻¹
- reduction of iodide quenching of f FPRCK-thrombin ([4]; 90% saturation, versus thrombin alone): ~ 50%
- HS [5]: 1.9
- IC50 [5]: 471 ± 80 nM
- ΔY [5]: 33 ± 3%
- selectivity for thrombin in comparison to factor XIa [6]: ~ 150 fold
- IC50 ([6]; pH 7.4, 37 °C, read-out: IC50 against factor XIa): > 30000 nM
- HS [7]: 2.2
- IC50 [7]: 409 ± 80 nM
- ΔY [7]: 42 ± 5%
- increase of IC50 in comparison to recombinant wild-type thrombin ([8]; mutants K236A, K235A, R173A and K169A): < 1.4 fold
- maximal inhibition efficacies ([8]; range over all recombinant thrombins studied): 28 to 64%
- HS [9]: 2.4
- IC50 [9]: 380 ± 70 nM
- ΔY [9]: 41 ± 4%
